# Structures can show the parent of a compound that is named as a salt. Where two headings read alike, the source gives them in different places.
# How the values were obtained:
# [1] = system: rabbit eyes; set-up: species or system New Zealand white rabbits; details: in vivo
# [2] = system: rabbits; set-up: species or system New Zealand white rabbits; details: rabbit, in vivo
# [3] = system: rabbits; set-up: species or system New Zealand white rabbits; details: rabbit, in vivo; remark: listed apart in the source
# [4] = cited from earlier work
# [5] = system: rabbit eyes; details: in vivo
structure (smiles),measurement,setting,value
"NC1=N[C@H](O)[C@H]2[C@H]3O[C@]4(O)O[C@@H]([C@@H](O)[C@@]2(N1)[C@@H]4O)[C@]3(O)CO [TTX, tetrodotoxin]",local anesthesia by retrobulbar injection compared with lidocaine,[1],much more potent
same,local anesthesia effect,[1],weak effect
same,local anesthesia in the treated eyes,[1],showed local anesthesia in the treated eyes to various extents
same,general examination findings,[2],"No changes of food-taking pattern, movement, respiration or alertness"
same,toxic signs observed,[2],"Signs of convulsion, rigidity and death"
same,abnormalities in other animals of the group,[3],No significant abnormalities
same,adverse signs in the TTX-treated eye,[3],"conjunctival congestion, hydrops (++) and lacrimation"
same,local anesthesia,[3],local anesthesia to some extent
same,toxic signs observed,[3],"Signs of convulsion, rigidity and death"
CCCCN1CCCCC1C(=O)Nc1c(C)cccc1C (stereo not shown) [bupivacaine],residual diplopia next morning,"[4]; bupivacaine, ophthalmic applications",up to 70 % of patients
same,duration of action,"[4]; bupivacaine, peripheral nerve block",≤ 24 h
"CCN(CC)CC(=O)Nc1c(C)cccc1C [lidocaine, lidocaine hydrochloride, reference compound]",duration of action,[1],0.34 h
same,onset,[1],1.94 min
same,duration of action,[4]; in vivo,over 20 minutes
same,onset,[4]; in vivo,about 2 minutes
same,magnitude of ERG b wave versus controls,[5],Neither were differences found
